Activity calls are given as the source filed them.
Tests used:
[1] = tested on: Vero; test: cells; type: functional; settings: Chlorocebus sabaeus
[2] = microbe, parasite or virus in culture; type: functional; settings: Mycobacterium tuberculosis
[3] = HEp-2 cell cytotoxicity, dose response, cytotoxicity control for RSV inhibitor project, HTS (AID 2410); type: functional; settings: human respiratory syncytial virus
[4] = cytotoxicity in HEK-293T cells, dose response, cytotoxicity control for TCR NF-kB inhibitor project, luminescence, T-cell screen hits (AID 489026); type: functional, cell-based;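 further: cells exposed to compound about 14 hours before the viability readout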
[5] = control 3'UTR Renilla luciferase suppression, dose response, counter-screen for Shn3 inhibitor project, cell-based, Clone20-Shn3RL, cherry-picked (AID 624133); type: functional
[6] = Shn3 3'UTR reporter inhibitors, dose response, cell-based, Clone20 osteoblasts, firefly luciferase, cherry-picked (AID 624132); type: functional;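 further: firefly luciferase luminescence from reporter carrying the Shn3 3'UTR in osteoblasts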
[7] = inhibitors of clade B AD8 Env fusion, dose response, cell-based, cherry-pick (AID 652062); type: functional;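 further: luciferase signal from cell-cell fusion driven by HIV-1 clade B AD8 Env; potency is for inhibitors of fusion seen as a drop in luminescence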
[8] = ZM109 Env clade C HIV-1 fusion inhibitors, dose response, HeLa effector, CEM target cells, luciferase, cherry-pick (AID 652058); type: functional, cell-based
[9] = molecular target: Photoreceptor-specific nuclear receptor (Homo sapiens, UniProt Q9Y5X4); type: functional, cell-based;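 further: CHO-S cells with Gal4-NCOR and VP16-NR2E3 two-hybrid luciferase reporter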
Sequence of Photoreceptor-specific nuclear receptor (Q9Y5X4 whole entry, the tested form may be a part): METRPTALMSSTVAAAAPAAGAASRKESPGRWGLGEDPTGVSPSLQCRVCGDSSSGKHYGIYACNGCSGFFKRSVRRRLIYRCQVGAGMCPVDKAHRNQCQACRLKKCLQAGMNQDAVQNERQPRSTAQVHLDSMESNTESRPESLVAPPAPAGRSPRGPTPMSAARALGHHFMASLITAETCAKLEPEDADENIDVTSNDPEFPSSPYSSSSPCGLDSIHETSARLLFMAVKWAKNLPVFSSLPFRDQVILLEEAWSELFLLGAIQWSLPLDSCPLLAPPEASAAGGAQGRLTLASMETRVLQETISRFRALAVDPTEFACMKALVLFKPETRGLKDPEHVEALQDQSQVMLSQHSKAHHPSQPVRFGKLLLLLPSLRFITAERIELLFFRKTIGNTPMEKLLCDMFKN

[10] = Luminescence Cell-Based Dose Retest to Confirm Inhibitors of Cancer Stem Cells. [Related pubchem assays (depositor defined):AID2717, AID2721]; type: functional; settings: Homo sapiens
[11] = molecular target: T1, Fatty acid synthase (Homo sapiens, UniProt P49327); test: FAS thioesterase domain inhibitors, dose response, biochemical, endpoint fluorescence intensity, uHTS hits (AID 624327); type: functional;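 further: fluorescence from hydrolysis of an O-methyl fluorescein acyl ester substrate by the enzyme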
T1 sequence (P49327 whole entry, the tested form may be a part): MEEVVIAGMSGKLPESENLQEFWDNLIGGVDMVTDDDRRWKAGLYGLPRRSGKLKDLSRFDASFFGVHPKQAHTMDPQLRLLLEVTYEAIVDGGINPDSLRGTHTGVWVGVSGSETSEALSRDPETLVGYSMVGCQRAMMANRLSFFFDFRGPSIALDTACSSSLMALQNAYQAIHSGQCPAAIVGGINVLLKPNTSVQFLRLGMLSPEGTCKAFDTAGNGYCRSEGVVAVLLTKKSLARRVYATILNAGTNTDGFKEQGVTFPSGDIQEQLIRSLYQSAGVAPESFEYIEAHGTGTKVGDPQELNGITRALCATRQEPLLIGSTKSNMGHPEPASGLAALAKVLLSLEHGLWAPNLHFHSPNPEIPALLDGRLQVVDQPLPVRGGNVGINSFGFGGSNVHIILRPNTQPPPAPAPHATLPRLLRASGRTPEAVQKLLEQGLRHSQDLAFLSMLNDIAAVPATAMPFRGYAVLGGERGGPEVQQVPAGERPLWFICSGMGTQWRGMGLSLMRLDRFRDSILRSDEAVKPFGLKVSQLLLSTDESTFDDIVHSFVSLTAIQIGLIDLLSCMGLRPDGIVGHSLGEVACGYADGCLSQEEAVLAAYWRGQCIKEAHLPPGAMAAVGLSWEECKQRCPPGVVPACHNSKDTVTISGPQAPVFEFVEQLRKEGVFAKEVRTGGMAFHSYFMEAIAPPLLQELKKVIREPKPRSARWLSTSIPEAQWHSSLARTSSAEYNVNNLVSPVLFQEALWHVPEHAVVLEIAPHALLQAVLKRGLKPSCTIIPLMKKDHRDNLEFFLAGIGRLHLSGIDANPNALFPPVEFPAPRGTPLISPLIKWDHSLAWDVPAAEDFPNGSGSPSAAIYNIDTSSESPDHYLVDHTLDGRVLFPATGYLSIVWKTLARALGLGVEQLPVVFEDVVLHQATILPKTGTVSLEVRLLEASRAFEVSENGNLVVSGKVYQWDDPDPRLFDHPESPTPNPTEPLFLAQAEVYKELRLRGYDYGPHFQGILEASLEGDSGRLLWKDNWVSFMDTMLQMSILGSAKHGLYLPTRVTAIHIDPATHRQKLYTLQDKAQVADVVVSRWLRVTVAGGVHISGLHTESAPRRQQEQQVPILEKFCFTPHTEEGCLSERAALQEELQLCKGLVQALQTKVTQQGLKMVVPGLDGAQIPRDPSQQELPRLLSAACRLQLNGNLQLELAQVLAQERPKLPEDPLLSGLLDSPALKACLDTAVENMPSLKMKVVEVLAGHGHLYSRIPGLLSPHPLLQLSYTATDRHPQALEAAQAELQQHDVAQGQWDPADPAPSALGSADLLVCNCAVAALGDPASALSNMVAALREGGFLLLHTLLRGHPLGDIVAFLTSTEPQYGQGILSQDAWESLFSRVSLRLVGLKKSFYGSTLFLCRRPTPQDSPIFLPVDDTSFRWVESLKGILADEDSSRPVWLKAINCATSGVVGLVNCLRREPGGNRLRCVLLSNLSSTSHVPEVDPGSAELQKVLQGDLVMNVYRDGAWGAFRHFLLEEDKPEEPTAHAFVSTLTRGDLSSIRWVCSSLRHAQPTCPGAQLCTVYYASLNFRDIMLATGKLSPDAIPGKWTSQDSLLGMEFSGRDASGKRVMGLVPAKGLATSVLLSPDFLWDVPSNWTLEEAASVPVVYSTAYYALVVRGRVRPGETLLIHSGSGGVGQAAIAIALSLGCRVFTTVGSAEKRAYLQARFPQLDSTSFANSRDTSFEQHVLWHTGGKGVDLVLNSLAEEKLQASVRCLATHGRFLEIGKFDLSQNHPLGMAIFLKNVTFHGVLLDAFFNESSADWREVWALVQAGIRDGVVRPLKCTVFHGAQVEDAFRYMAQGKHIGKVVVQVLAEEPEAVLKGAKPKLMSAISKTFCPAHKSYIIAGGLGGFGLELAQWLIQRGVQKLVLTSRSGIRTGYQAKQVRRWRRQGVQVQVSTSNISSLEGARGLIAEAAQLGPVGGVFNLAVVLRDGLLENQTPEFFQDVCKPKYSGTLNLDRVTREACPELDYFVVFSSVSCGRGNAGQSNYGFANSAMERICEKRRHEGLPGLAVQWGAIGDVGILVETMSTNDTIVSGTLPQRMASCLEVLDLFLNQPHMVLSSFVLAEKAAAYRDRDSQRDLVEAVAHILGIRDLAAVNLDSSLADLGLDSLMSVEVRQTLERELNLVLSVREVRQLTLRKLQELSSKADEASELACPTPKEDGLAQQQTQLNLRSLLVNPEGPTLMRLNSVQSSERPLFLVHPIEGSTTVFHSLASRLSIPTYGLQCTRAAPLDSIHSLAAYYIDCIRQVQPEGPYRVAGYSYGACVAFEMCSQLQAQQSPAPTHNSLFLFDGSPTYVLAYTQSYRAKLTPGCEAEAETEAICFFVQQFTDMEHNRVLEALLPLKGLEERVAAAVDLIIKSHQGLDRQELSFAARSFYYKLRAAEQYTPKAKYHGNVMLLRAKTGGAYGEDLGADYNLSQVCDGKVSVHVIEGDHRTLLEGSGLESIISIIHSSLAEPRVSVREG

[12] = molecular target: T1, Fatty acid synthase; test: FAS thioesterase domain inhibitors, dose response, biochemical, kinetic fluorescence intensity (AID 624326); type: functional;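 further: rate of fluorescence rise from hydrolysis of a fluorogenic O-methyl fluorescein ester substrate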
[13] = cytotoxicity toward NIH3T3 fibroblasts, dose response, counter-screen, cell-based, ATP luminescence, mouse fibroblasts (AID 2010); type: functional;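 further: cells exposed to compound for about 90 hours before reading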
[14] = C. albicans growth with fluconazole, confirmation, fluorescence, retest (AID 2467); type: functional, cell-based
[15] = NIH-3T3 fibroblast cytotoxicity, dose response, cytotoxicity control, cell-based, fluorescence, Alamar Blue, secondary assay (AID 2327); type: functional;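 further: NIH-3T3 mouse fibroblasts cultured with fluconazole at 8 µg/mL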
[16] = inhibitors of intracellular T. cruzi replication, confirmation, NIH3T3 host cells, beta-gal luminescence (AID 2044); type: functional, cell-based;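 further: intracellular parasites grown in NIH/3T3 mouse fibroblasts as host cells; luminescent beta-galactosidase reporter signal from transgenic T. cruzi replicating inside host cells; inhibitors lower the luminescence signal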
[17] = molecular target: Heat shock protein HSP 90-alpha (Homo sapiens, UniProt P07900); type: functional, organism-based
[18] = inhibitors of SNCA 5'UTR-driven reporter translation, confirmation, H4 neuroglioma cells, luminescence (AID 1988); type: functional, cell-based
[19] = inhibitors of firefly luciferase expression or activity, dose response, H4 neuroglioma cells, luminescence (AID 1990); type: functional, cell-based
[20] = Luminescence Cell-Based Dose Response HTS to Identify Inhibitors of 5'UTR Stem-Loop Driven Prion Protein mRNA Translation in H4 Neuroglioblastoma Cells. [Related pubchem assays: 1827 (Project Summary), 1813 (Primary HTS)]; type: functional
[21] = tested on: HEK293; test: inhibitors of LMP1-driven NF-kB reporter, dose response, cell-based, HEK293, luciferase, cherry-pick (AID 588343); type: functional; settings: Homo sapiens
[22] = cells; type: functional

SMILES: CCOc1cc(/C=C/C(=O)c2ccc(C)cc2)ccc1OCC(=O)N(C)C
- CC50 [1]: > 25 µM (active)

SMILES: O=C(Nc1ccc(CN2CCOCC2)cc1)c1ccc(-c2cc(Cl)ccc2Cl)o1
- CC50 [2]: 29.3 µM (active)
- CC50 [3]: 4.45 µM (active)
- CC50 [1]: 21.1 µM (active)

SMILES: O=C(Nc1ccc(S(=O)(=O)N2CCN(Cc3ccccc3)CC2)cc1)c1cnccn1
- IC50 [4]: > 80 µM (inactive)
- AC50 [5]: 4.15 µM (active)
- AC50 [6]: 1.65 µM (active)
- AC50 [7]: 4.9 µM (active)
- AC50 [8]: < 0.26 µM (active)

SMILES: Cc1c(Cl)ccc2sc(N3CCN(C(=O)C4=COCCO4)CC3)nc12
- CC50 [2]: 38.1 µM (active)
- IC50 [9]: 4.06 µM (active)

SMILES: COc1ccc(-c2csc3nc(-c4ccccc4F)oc(=O)c23)cc1OC
- AC50 [10]: 5.19 µM (active)
- IC50 [11]: 9.02 µM (active)
- IC50 [12]: 6.25 µM (active)

SMILES: CN=C(S)N=CNOCc1ccc(Cl)cc1Cl
- EC50 [13]: 7.02 µM (active)
- EC50 [14]: < 0.03 µM (active)
- EC50 [15]: 7.07 µM (inconclusive)
- EC50 [16]: 0.368 µM (active)
- IC50 [9]: 3.21 µM (active)

SMILES: CCN1C(=O)/C(=C\C(=O)c2cccs2)c2cc(Br)ccc21
- AC50 [17]: 3.66 µM (active)
- CC50 [1]: > 25 µM (active)

SMILES: COc1ccc(/C=C/c2nc3ccccc3c(=O)o2)cc1
- EC50 [18]: 7.8 µM (inconclusive)
- EC50 [19]: 8.15 µM (inconclusive)
- EC50 [20]: 3.01 µM (active)
- AC50 [21]: 0.507 µM (active)
- IC50 [22]: 21.5 µM (active)

SMILES: CCC(=O)N1CCCc2cc(S(=O)(=O)N3CCN(c4ccccn4)CC3)ccc21
- IC50 [9]: 2.3 µM (active)

Source: ChEMBL document CHEMBL1201862, “PubChem BioAssay data set” (2004)
